Laboratory results reported in publication PMC8037784 (Cancers, 2021).
Several values for one entry are separate records, joined by “and”; a condition that tells them apart may be missing. Identical values can stand only once.

Key:
[1] = Organ distribution of lenvatinib in rats with or without liver RT; type: in vivo, Sprague-Dawley rats; conditions: rat; for concentration at 6 h: Sprague-Dawley, po, 3 mg/kg; for concentration at 6 h / Concentration of lenvatinib in spleen: 6 h after administration
Text: (§1) A freely moving rat model was designed for the current study. The rats were anesthetized and immobilized on a board while undergoing computed tomography to localize the whole liver or a central area measuring 1.5 cm × 1.5 cm for the SBRT technique. For the whole liver field, the cranial margin was set 5 mm from the top of the diaphragm, and the caudal margin was set 5 mm lower than the liver margin. The whole liver was targeted for irradiation. […] Data were collected from six rats per group.
(§2) A radiation dose of 2 Gy was considered the daily conventional EBRT dose or the off-target dose around the target that received an ablation RT dose. A dose of 9 Gy was used to simulate SBRT. […] Rats were initially anesthetized with pentobarbital (50 mg/kg, i.p.) and remained anesthetized throughout the experimental period. After surgery, the rats were placed in an experimental cage and allowed to recover for 1 day.
The brain, liver, heart, spleen, lung, and kidney were collected and weighed. These collected samples were stored at −20 °C until analysis.
The thawed organ samples were homogenized in 50% aqueous acetonitrile (the ratio of sample weight and volume was 1:5), and the homogenate was centrifuged at 13,000× g for 10 min at 4 °C. The supernatant was collected, placed in brown Eppendorf tubes, and stored at −20 °C until analysis. Briefly, each organ sample (50 μL) was combined with 150 μL of IS solution (diethylstilbestrol) for protein precipitation. Finally, 20 μL of filtrate was subjected to HPLC analysis.

[2] = test system: CYP3A4; conditions: cited from earlier work
[3] = in vivo; design: species or system Sprague-Dawley rats; conditions: Sprague-Dawley, rat, po, 3 mg/kg
Method: The HPLC system consisted of a chromatographic pump (LC−20AT), an online injector (SIL−20C) equipped with a 10 μL sample loop to inject the sample, and an ultraviolet detector (SPD-M20A).
as §1
as §2, with “After surgery, the rats were placed in an experimental cage and allowed to recover for 1 day.” left out
PK parameters, including the area under the concentration–time curve (AUC), clearance (CL), elimination half-life (t1/2), volume of distribution at steady state (Vss), and mean residence time (MRT), were calculated using the PK calculation software WinNonlin Standard Edition, Version 1.1 (Scientific Consulting, Apex, NC, USA) by a compartmental method.

[4] = RT2Gy concurrent with lenvatinib
[5] = RT9Gy concurrent with lenvatinib

concentration at 6 h ([1]; brain, Concentration of lenvatinib in brain, 3 mg/kg p.o., RT2Gy concurrent with lenvatinib): 0 ng/mL | concentration at 6 h ([1]; brain, Concentration of lenvatinib in brain, 3 mg/kg p.o., RT2Gy followed by lenvatinib): 0 ng/mL | concentration at 6 h ([1]; brain, Concentration of lenvatinib in brain, 3 mg/kg p.o., RT9Gy concurrent with lenvatinib): 0 ng/mL | concentration at 6 h ([1]; brain, Concentration of lenvatinib in brain, 3 mg/kg p.o., RT9Gy followed by lenvatinib): 0 ng/mL | concentration at 6 h ([1]; brain, Concentration of lenvatinib in brain, 3 mg/kg p.o., lenvatinib only): 0 ng/mL | concentration at 6 h ([1]; heart, Concentration of lenvatinib in heart, 3 mg/kg p.o., RT2Gy concurrent with lenvatinib): 32 ± 40 ng/mL | concentration at 6 h ([1]; heart, Concentration of lenvatinib in heart, 3 mg/kg p.o., RT2Gy followed by lenvatinib): 74 ± 40 ng/mL | concentration at 6 h ([1]; heart, Concentration of lenvatinib in heart, 3 mg/kg p.o., RT9Gy concurrent with lenvatinib): 15 ± 40 ng/mL | concentration at 6 h ([1]; heart, Concentration of lenvatinib in heart, 3 mg/kg p.o., RT9Gy followed by lenvatinib): 78 ± 40 ng/mL | concentration at 6 h ([1]; heart, Concentration of lenvatinib in heart, 3 mg/kg p.o., lenvatinib only): 50 ± 50 ng/mL | concentration at 6 h ([1]; kidney, Concentration of lenvatinib in kidney, 3 mg/kg p.o., RT2Gy concurrent with lenvatinib): 113 ± 30 ng/mL | concentration at 6 h ([1]; kidney, Concentration of lenvatinib in kidney, 3 mg/kg p.o., RT2Gy followed by lenvatinib): 230 ± 50 ng/mL | concentration at 6 h ([1]; kidney, Concentration of lenvatinib in kidney, 3 mg/kg p.o., RT9Gy concurrent with lenvatinib): 129 ± 50 ng/mL | concentration at 6 h ([1]; kidney, Concentration of lenvatinib in kidney, 3 mg/kg p.o., RT9Gy followed by lenvatinib): 223 ± 50 ng/mL | concentration at 6 h ([1]; kidney, Concentration of lenvatinib in kidney, 3 mg/kg p.o., lenvatinib only): 175 ± 50 ng/mL | concentration at 6 h ([1]; liver, Concentration of lenvatinib in liver, 3 mg/kg p.o., RT2Gy concurrent with lenvatinib): 72 ± 60 ng/mL | concentration at 6 h ([1]; liver, Concentration of lenvatinib in liver, 3 mg/kg p.o., RT2Gy followed by lenvatinib): 158 ± 90 ng/mL | concentration at 6 h ([1]; liver, Concentration of lenvatinib in liver, 3 mg/kg p.o., RT9Gy concurrent with lenvatinib): 93 ± 50 ng/mL | concentration at 6 h ([1]; liver, Concentration of lenvatinib in liver, 3 mg/kg p.o., RT9Gy followed by lenvatinib): 161 ± 70 ng/mL | concentration at 6 h ([1]; liver, Concentration of lenvatinib in liver, 3 mg/kg p.o., lenvatinib only): 104 ± 50 ng/mL | concentration at 6 h ([1]; lung, Concentration of lenvatinib in lung, 3 mg/kg p.o., RT2Gy concurrent with lenvatinib): 33 ± 40 ng/mL | concentration at 6 h ([1]; lung, Concentration of lenvatinib in lung, 3 mg/kg p.o., RT2Gy followed by lenvatinib): 92 ± 30 ng/mL | concentration at 6 h ([1]; lung, Concentration of lenvatinib in lung, 3 mg/kg p.o., RT9Gy concurrent with lenvatinib): 42 ± 50 ng/mL | concentration at 6 h ([1]; lung, Concentration of lenvatinib in lung, 3 mg/kg p.o., RT9Gy followed by lenvatinib): 75 ± 30 ng/mL | concentration at 6 h ([1]; lung, Concentration of lenvatinib in lung, 3 mg/kg p.o., lenvatinib only): 108 ± 40 ng/mL | concentration at 6 h ([1]; spleen, Concentration of lenvatinib in spleen, 3 mg/kg p.o., RT2Gy followed by lenvatinib): 73 ± 40 ng/mL | concentration at 6 h ([1]; spleen, Concentration of lenvatinib in spleen, 3 mg/kg p.o., RT9Gy followed by lenvatinib): 60 ± 60 ng/mL | concentration at 6 h ([1]; spleen, Concentration of lenvatinib in spleen, 3 mg/kg p.o., lenvatinib only): 30 ± 50 ng/mL | Concentration of lenvatinib in spleen ([1]; 3 mg/kg p.o., RT2Gy concurrent with lenvatinib): 0 ng/mL | Concentration of lenvatinib in spleen ([1]; 3 mg/kg p.o., RT9Gy concurrent with lenvatinib): 0 ng/mL | Detection of lenvatinib in the brain ([1]; 3 mg/kg p.o., with or without RT): not detected | Heart concentration decreased compared with the sham group [1, 4]: 36.0% | Kidney concentration decreased compared with the sham group [1, 4]: 35.4% | Liver concentration decreased compared with the sham group [1, 4]: 30.8% | Lung concentration decreased compared with the sham group [1, 4]: 69.4% | Spleen concentration decreased compared with the sham group [1, 4]: 100.0% | Heart concentration increased compared with the sham group ([1]; RT2Gy followed by lenvatinib): 48.0% | Kidney concentration increased compared with the sham group ([1]; RT2Gy followed by lenvatinib): 31.4% | Liver concentration increased compared with the sham group ([1]; RT2Gy followed by lenvatinib): 51.9% | Lung concentration decreased compared with the sham group ([1]; RT2Gy followed by lenvatinib): 15% and 14.8% | Spleen concentration increased compared with the sham group ([1]; RT2Gy followed by lenvatinib): 143.3% | Heart concentration decreased compared with the sham group [1, 5]: 70.0% | Kidney concentration decreased compared with the sham group [1, 5]: 26.2% | Liver concentration decreased compared with the sham group [1, 5]: 10.6% | Lung concentration decreased compared with the sham group [1, 5]: 61.1% | Spleen concentration decreased compared with the sham group [1, 5]: 100% | Heart concentration increased compared with the sham group ([1]; RT9Gy followed by lenvatinib): 56.0% | Kidney concentration increased compared with the sham group ([1]; RT9Gy followed by lenvatinib): 27.4% | Liver concentration increased compared with the sham group ([1]; RT9Gy followed by lenvatinib): 54.8% | Lung concentration decreased compared with the sham group ([1]; RT9Gy followed by lenvatinib): 31% and 30.6% | Spleen concentration increased compared with the sham group ([1]; RT9Gy followed by lenvatinib): 100% | Increase of concentration in the heart ([1]; sequential RT regimen): 50% | Increase of concentration in the kidneys ([1]; sequential RT regimen): 30% | Increase of concentration in the liver ([1]; sequential RT regimen): 50% | Increase of concentration in the spleen ([1]; sequential regimen): more than 100% | concentration at 60 min [3]: 940 ng/mL
Compound: COc1cc2nccc(Oc3ccc(NC(=O)NC4CC4)c(Cl)c3)c2cc1C(N)=O [lenvatinib, Lenvatinib]
Oxidative metabolism [2]: mediated primarily by CYP3A4
